Active and inactive are the calls of the source. No cut-off for these calls is given here.
Key:
[1] = target: Butyrylcholinesterase (Rattus norvegicus, UniProt Q9JKC1); experiment: Inhibition of BChE in rat serum using butyrylthiocholine iodide substrate incubated for 15 mins by UV spectroscopy based Ellman's method; format: cell-free
[2] = target: T1, Acetylcholinesterase (Rattus norvegicus, UniProt P37136); experiment: Inhibition of AChE in rat cortex homogenates using acetylthiocholine iodide substrate incubated for 15 mins by UV spectroscopy based Ellman's method
T1 sequence (P37136 whole entry): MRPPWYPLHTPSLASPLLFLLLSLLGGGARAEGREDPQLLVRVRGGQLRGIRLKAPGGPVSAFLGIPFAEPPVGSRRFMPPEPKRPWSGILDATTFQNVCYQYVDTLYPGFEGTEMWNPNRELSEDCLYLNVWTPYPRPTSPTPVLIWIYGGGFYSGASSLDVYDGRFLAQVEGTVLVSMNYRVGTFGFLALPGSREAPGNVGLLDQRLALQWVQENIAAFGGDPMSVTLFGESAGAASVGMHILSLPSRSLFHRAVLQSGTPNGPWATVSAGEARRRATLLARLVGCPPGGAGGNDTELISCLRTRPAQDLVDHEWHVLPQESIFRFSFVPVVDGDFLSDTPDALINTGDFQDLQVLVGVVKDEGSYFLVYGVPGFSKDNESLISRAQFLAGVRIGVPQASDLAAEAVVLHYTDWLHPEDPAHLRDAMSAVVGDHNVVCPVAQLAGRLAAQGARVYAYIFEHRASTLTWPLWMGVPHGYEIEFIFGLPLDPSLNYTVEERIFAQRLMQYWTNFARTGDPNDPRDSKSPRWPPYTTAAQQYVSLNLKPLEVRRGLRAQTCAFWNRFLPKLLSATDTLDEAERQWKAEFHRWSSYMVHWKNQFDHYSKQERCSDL

[3] = Metal chelating activity assessed as inhibition of copper-mediated Amyloid beta (1 to 40) aggregation at 50 uM after 48 hrs by transmission electron microscopy; format: physicochemical
[4] = Antioxidant activity assessed as ABTS radical cation scavenging activity; format: physicochemical
[5] = target: T1, Acetylcholinesterase; experiment: Retention time in rat cortex homogenates at 1 mmol after 24 hrs by HPLC-MS method; format: ADME; settings: tissue homogenate
[6] = target: T1, Acetylcholinesterase; experiment: Prodrug activation in rat cortex homogenates treated with 1 mmol 2-Methoxy-4-(piperidin-1-ylmethyl)phenyl dimethylcarbamate assessed as AChE-mediated compound formation after 24 hrs by HPLC-MS method; format: ADME; settings: tissue homogenate
[7] = target: Amyloid-beta precursor protein (Homo sapiens) (UniProt P05067); experiment: Inhibition of Amyloid beta (1 to 40) (unknown origin) assessed as self-mediated fibril formation at 50 uM incubated for 48 hrs by transmission electron microscopy
Amyloid-beta precursor protein (Homo sapiens), sequence (P05067 whole entry): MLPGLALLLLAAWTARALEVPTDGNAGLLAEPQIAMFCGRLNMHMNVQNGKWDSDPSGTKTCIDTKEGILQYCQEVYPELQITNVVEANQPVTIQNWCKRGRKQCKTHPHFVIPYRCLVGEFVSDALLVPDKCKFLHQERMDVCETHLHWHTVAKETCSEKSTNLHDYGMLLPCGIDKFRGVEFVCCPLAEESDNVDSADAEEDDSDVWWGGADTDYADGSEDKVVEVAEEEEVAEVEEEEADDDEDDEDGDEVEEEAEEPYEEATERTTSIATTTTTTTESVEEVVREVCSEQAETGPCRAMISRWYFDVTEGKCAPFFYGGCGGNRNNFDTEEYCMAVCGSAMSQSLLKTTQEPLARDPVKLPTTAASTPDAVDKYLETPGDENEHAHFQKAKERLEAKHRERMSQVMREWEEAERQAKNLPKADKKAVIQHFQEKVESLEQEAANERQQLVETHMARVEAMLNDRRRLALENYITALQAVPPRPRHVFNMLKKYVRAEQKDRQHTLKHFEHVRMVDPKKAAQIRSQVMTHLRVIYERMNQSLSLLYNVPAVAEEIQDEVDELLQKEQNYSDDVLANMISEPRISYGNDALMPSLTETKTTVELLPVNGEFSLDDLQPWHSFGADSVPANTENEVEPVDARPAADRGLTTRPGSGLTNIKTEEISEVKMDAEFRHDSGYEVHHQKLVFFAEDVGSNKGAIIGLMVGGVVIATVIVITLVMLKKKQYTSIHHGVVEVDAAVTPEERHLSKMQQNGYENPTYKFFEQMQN

[8] = target: Butyrylcholinesterase (Rattus norvegicus) (UniProt Q9JKC1); experiment: Potency index, ratio of IC50 for rivastigmine to IC50 for test compound against BChE in rat serum using butyrylthiocholine iodide substrate incubated for 15 mins by UV spectroscopy based Ellman's method; format: cell-free
Butyrylcholinesterase (Rattus norvegicus), sequence (Q9JKC1 as listed by the source): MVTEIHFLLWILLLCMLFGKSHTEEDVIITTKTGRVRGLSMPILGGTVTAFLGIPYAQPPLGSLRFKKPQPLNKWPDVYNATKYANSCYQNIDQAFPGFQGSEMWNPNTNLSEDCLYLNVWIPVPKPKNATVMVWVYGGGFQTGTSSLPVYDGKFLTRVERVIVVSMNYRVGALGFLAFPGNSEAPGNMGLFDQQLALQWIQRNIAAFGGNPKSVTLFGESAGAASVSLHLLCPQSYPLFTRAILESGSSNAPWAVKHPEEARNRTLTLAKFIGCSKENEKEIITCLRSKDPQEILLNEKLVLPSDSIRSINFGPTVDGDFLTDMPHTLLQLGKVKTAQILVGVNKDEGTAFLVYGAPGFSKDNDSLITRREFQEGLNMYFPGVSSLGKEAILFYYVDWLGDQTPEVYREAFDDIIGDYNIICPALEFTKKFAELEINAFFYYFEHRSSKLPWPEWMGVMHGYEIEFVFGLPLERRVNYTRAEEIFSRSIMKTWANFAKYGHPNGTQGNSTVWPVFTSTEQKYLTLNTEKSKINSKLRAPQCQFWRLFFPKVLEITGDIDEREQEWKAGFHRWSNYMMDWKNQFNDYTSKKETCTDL

[9] = target: T1, Acetylcholinesterase; experiment: Prodrug activation in rat cortex homogenates assessed as AChE-mediated 2-methoxy-4-(piperidin-1-ylmethyl)phenol formation at 1 mmol after 24 hrs by HPLC-MS method; settings: tissue homogenate

Butyrylcholinesterase, sequence (Q9JKC1 whole entry): as the sequence (Q9JKC1 as listed by the source) above

SMILES | IC50 [1] | IC50 [2] | also measured
COc1ccc(C(C)N2CCCCC2)cc1OC(=O)N(C)C (stereo not given) | 34 nM | 1420 nM | 
COc1cc(CN2CCOCC2)ccc1OC(=O)N(C)C | 430 nM | 1710 nM | 
CCN(CC)Cc1ccc(OC)c(OC(=O)N(C)C)c1 | 79 nM | 1480 nM | 
COc1cc(CN2CCCCC2)ccc1O |  |  | inhibition (INH) [3]: Active; IC50 [4]: 2910 nM; inhibition (INH) [4]: Dose-dependent effect; Retention_time [5]: 5.5 min; Drug metabolism [6]: metabolite_detected
COc1ccc(CN2CCOCC2)cc1OC(=O)N(C)C | 120 nM | 20800 nM | 
COc1cc(C(C)N2CCCC2)ccc1OC(=O)N(C)C (stereo not given) | 18 nM | 190 nM | 
CCN(CC)C(C)c1ccc(OC)c(OC(=O)N(C)C)c1 (stereo not given) | 130 nM | 2770 nM | 
COc1cc(C(C)N2CCCCC2)ccc1OC(=O)N(C)C (stereo not given) | 8 nM | 110 nM | inhibition [7]: Active; Ratio IC50 [8]: 40
CCN(CC)Cc1ccc(OC(=O)N(C)C)c(OC)c1 | 35 nM | 110 nM | 
COc1cc(C(C)N2CCOCC2)ccc1OC(=O)N(C)C (stereo not given) | 310 nM | 4980 nM | 
COc1ccc(C(C)N2CCCC2)cc1OC(=O)N(C)C (stereo not given) | 82 nM | 1920 nM | 
COc1ccc2[nH]cc(CCNC(C)=O)c2c1 [MELATONIN] |  |  | IC50 [4]: 1920 nM; inhibition (INH) [4]: Dose-dependent effect
COc1ccc(C(C)N2CCOCC2)cc1OC(=O)N(C)C (stereo not given) | 270 nM | 23300 nM | 
COc1cccc(CN2CCCCC2)c1OC(=O)N(C)C | 3130 nM | 22700 nM | 
CCN(CC)C(C)c1ccc(OC(=O)N(C)C)c(OC)c1 (stereo not given) | 63 nM | 240 nM | 
COc1cc(CN2CCCCC2)ccc1OC(=O)N(C)C | 24 nM | 97 nM | Drug metabolism [9]: metabolite_detected; Retention_time [5]: 6.84 min; inhibition [7]: Active
COc1ccc(CN2CCCC2)cc1OC(=O)N(C)C | 29 nM | 2870 nM | 
CCN(C)C(=O)Oc1cccc([C@H](C)N(C)C)c1 |  |  | inhibition [7]: inactive
COc1ccc(CN2CCCCC2)cc1OC(=O)N(C)C | 10 nM | 660 nM | inhibition [7]: Active; Ratio IC50 [8]: 40
COc1cc(/C=C/C(=O)CC(=O)/C=C/c2ccc(O)c(OC)c2)ccc1O |  |  | inhibition [7]: Active
COc1cc(CN2CCCC2)ccc1OC(=O)N(C)C | 12 nM | 130 nM | 
